Experimental data published in US9975852B2, “Quinoline sulfonyl derivatives and uses thereof” (Health Sciences North Research Institute, priority 2013, dated 2018).

Legend:
MCF7 = assay: SRB antiproliferative assay, MCF7; type: cell-based, human; conditions: Homo sapiens
Experimental: Antiproliferative effects were determined by a sulforhodamine B (SRB) based protocol. For a typical screening experiment, 5,000-10,000 cells were inoculated into 100 μl medium per well of a 96-well microtiter plate as described previously. […] Some of the sample wells were fixed with 25 μl of 50% trichloroacetic acid (TCA) as a control of the cell population for each cell line at the time of drug addition (Tz). An aliquot of the frozen stock was thawed and diluted to the desired final maximum test-concentration with complete medium. Two to ten-fold serial dilutions were made to provide a total of seven drug concentrations (and a control [C]). Following addition of drugs, the culture plate was incubated for additional 48 h. Cells were fixed in situ by slowly adding 25 μl of ice-cold 50% (w/v) TCA (final concentration, 10% TCA), and were then incubated for 60 min at 4° C. The supernatant was discarded, and the plate was washed five times with tap water, followed by air-dry. 50 μl of SRB solution at 0.4% (w/v) in 1% acetic acid was added to each well, and the plate was incubated for >30 min at room temperature. Unbound SRB was removed by five washes with tap water, followed by air-drying. […] The relative growth rate (%) was calculated for each of the compound concentrations according to the following formula: (Ti−Tz)/(C−Tz)×100 In the formula, time zero (Tz), control growth (C), and OD for different concentration of tested compounds (Ti). The GI50 for each compound was obtained from a non-linear Sigmoidal dose-response (variable slope) curve which is fitted by GraphPad Prism™ v.4.03 software. Values were calculated for each of these parameters if the level of activity was reached. However, if the effect was not reached or was exceeded, the value for that parameter was expressed as greater or less than the maximum or minimum concentration tested. Flow Cytometry

[1] = target: T1, Trypsin-like proteasome activity in HeLa S3 cell lysates (Homo sapiens, UniProt Q99436); assay: Proteasome activity assay, trypsin-like; type: biochemical; conditions: read-out: Inhibition (IC50) Trypsin-like
T1 construct: proteasomes were extracted in 0.5% NP40 buffer; endogenous in cells; host or cells: HeLa S3
Experimental: (§1) Exponentially growing HeLa S3 cells were plated on 96-well plates. After overnight incubation, the cells were treated with different concentrations of drugs for 6 hours or left untreated (control). At the end of 6 hours, proteasomes were extracted in 0.5% NP40 buffer, and equal amounts of samples were incubated with 25 μM of fluorogenic substrates purchased from Boston Biochem (Cambridge Mass.). (LRR-specific for trypsin-like activity, LLE-specific for caspase-like activity and SUVY-specific for chymotrypsin like activity) in black-bottom 96-well plates at 37° C. Fluorescence was monitored every 5 min at the wavelength of 360 nm (excitation) and 480 nm (emission). Chymotrypsin activity was also determined by a kit-based method (similar to described above) purchased from Caymen Biochem (Ann Arbor, Mich.), using a fluorogenic substrate specific for chymotrypsin activity.
(§2) Analysis of proteasome activity in HeLa S3 cell lysates treated with various compounds (FIG. 10). VR-23 inhibits proteasome activity. 20S proteasome activity was inhibited by 1 μM VR-23. MG132 and EGCG, known proteasome inhibitors, were used as positive controls. The PC positive control is cell lysates prepared from Jurkat cells with a high proteasome activity. “Asynchr” denote asynchronous HeLa S3 cells grown in the absence of VR-23.

[2] = target: T2, Chymotrypsin-like proteasome activity in HeLa S3 cell lysates (Homo sapiens, UniProt P28074); assay: Proteasome activity assay, chymotrypsin-like; type: biochemical; conditions: read-out: Inhibition (IC50) Chymotrypsin-like
T2 construct: proteasomes were extracted in 0.5% NP40 buffer; endogenous in cells; host or cells: HeLa S3
Experimental: as §1, §2

MCF10A non-cancer cells = assay: Confocal microscopy of centrosomes, MCF10A non-cancer cells; type: cell-based, human; conditions: VR-23 20 μM, 3 hours post-DT
From the text: All immunocytochemistry experiments were visualized by confocal microscopy using a Zeiss 510 Meta laser scanning microscope (Carl Zeiss) equipped with a 63× objective lens, unless otherwise specified herein. Three lasers were utilized for excitation with the following band pass filter settings used for detection: Argon 488 nm (band pass 505-530), HeNe 543 nm (long pass 560) and 633 nm (long pass 650). All images were captured and analyzed using LSM 510 software included with the microscope (LSM Image Examiner™, Carl Zeiss).
The synchronization at the G1/S border (more accurately at the beginning of S phase) was achieved by double thymidine block (DT). Briefly, exponentially growing cells are treated with 2.0 mM thymidine for 18 hours, followed by incubation for 11 hours in drug-free complete medium, by which time most cells are at mid-late G1 phase. The cells are then incubated for another 14 hours in 2.0 mM thymidine to arrest them at the G1/S border. To arrest cells at the G2/M phase, cells were maintained for 18 hours in complete medium containing nocodazole (50 ng/ml). Both these synchronization are reversible.
MCF10A (non-cancer breast) cells synchronized at G1/S by DT were released into complete medium for 3 hours in the absence (control) or presence of VR-23 (20 μM), followed by immunostaining with an antibody specific for cyclin E (FIG. 19A) or Plk1 or Plk4 (FIG. 19B). […]

Compound: O=[N+]([O-])c1ccc(S(=O)(=O)N2CCN(c3ccnc4cc(Cl)ccc34)CC2)c([N+](=O)[O-])c1 [Compound 1, 7-Chloro-4-(4-(2,4-dinitrophenylsulfonyl)piperazin-1-yl)quinoline]
- GI50 (MCF7; MCF7, 48 h, read-out: GI50 MCF7): 2320 ± 800 nM
- IC50 (MCF7; MCF7, SRB): 2300 ± 800 nM
- IC50 [1]: 1 nM
- IC50 [2]: 100 nM
- Centrosome amplification in MCF10A (MCF10A non-cancer cells): did not cause centrosome amplification
